Assay results: PMC8231556, “Inhibiting Endothelial Cell Function in Normal and Tumor Angiogenesis Using BMP Type I Receptor Macrocyclic Kinase Inhibitors” (Cancers, 2021)

Key:
[1] = system: constitutively active ALK2 (caALK2); experiment: caALK2-induced BRE-Luc reporter activity in C2C12 cells; type: cell-based; conditions: C2C12 cells, 0.1, 0.5 or 1 μM, 16 hours
Description: To further investigate and validate the selective inhibitory effects of OD16 and OD29 toward BMP9/ALK1 and BMP6/ALK2 signaling, we transfected C2C12 myoblast cells with constitutively active mutant ALK1 and ALK2 (caALK1 and caALK2). These constitutively active receptors signal in the absence of exogenous ligands and allow for a more direct assessment of inhibitory effects that are elicited by kinase receptor inhibitors.
Figure S2. Structural model of (A) LDN−193189, (B) OD16 (grey) overlay with LDN−193189 (green), (C) OD29 (grey) over-lay with LDN−193189 (green) bind to the ALK1 hinge region in the ATP pocket.
Figure S3. RT-qPCR analysis of the ALK1, ALK2 and GAPDH mRNA expression in EA.hy926 and HUVEC cells. Mean Cq and Cq standard error of the mean (SEM) are listed. Representative results from three independent experiments are shown.
Figure S4. OD29 and OD16 are two small molecule BMP type I receptors kinase inhibitors in C2C12 cells. Effects of vehicle control (DMSO), LDN−193189, OD16 or OD29 on BRE transcriptional luciferase reporter activity induced by the ectopic expression of caALK1 (A) or caALK2 (B) in C2C12 cells. Cells were incubated with the inhibitors in three different con-centrations (0.1 μM, 0.5 μM or 1 μM) for 16 hours. Representative results from three biologically independent experiments are shown as mean ± SD. NS, not significant; * p < 0.05, ** p < 0.005; *** p < 0.001. […]

SIK2 = biological target: T1, SIK2 (Homo sapiens, UniProt Q9H0K1); experiment: radiometric kinase profiling (33 PanQinase); type: biochemical; conditions: read-out: Inhibitory effect (%) SIK2
T1 construct: purchased ProQinase (33PanQinase Activity Assay)
T1 sequence (Q9H0K1 whole entry): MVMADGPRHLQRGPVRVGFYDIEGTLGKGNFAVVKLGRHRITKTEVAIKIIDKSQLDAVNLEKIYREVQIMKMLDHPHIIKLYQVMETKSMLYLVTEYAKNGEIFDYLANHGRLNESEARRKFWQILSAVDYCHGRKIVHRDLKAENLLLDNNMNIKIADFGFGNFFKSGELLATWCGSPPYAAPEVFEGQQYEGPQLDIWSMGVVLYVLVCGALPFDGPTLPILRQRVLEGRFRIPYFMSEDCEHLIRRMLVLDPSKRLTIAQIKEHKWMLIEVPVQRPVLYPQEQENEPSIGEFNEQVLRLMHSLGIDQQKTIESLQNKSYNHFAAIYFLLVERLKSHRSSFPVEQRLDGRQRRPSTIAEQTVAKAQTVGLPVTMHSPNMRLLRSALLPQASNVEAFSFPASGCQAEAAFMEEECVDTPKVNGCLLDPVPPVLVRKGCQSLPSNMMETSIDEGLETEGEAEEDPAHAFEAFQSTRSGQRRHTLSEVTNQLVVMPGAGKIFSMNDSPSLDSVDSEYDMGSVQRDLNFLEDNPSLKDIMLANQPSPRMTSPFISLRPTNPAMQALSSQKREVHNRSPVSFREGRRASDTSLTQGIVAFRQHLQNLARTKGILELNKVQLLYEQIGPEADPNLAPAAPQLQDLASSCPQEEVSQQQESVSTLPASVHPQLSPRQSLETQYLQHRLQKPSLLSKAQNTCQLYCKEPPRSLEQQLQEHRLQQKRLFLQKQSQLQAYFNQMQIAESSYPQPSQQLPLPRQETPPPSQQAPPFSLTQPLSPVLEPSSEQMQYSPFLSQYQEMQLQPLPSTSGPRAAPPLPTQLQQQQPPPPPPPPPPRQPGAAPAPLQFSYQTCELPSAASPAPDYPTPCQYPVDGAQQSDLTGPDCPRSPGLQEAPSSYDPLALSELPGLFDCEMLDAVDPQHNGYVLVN
Summary of the method: (§1)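 Enzyme/substrate mixes were incubated with [γ-33P]-ATP and compound (added as a 0.1 μM solution in 10% DMSO) at 30 °C for 60 min, then stopped with H3PO4 and washed with NaCl. 33P incorporation was scintillation-counted, and residual activity (%) was normalized to untreated control and background.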

MAP4K4 = biological target: T2, MAP4K4 (Homo sapiens, UniProt O95819); experiment: radiometric kinase profiling (33 PanQinase); type: biochemical; conditions: read-out: Inhibitory effect (%) MAP4K4
T2 construct: purchased ProQinase (33PanQinase Activity Assay)
T2 sequence (O95819 whole entry): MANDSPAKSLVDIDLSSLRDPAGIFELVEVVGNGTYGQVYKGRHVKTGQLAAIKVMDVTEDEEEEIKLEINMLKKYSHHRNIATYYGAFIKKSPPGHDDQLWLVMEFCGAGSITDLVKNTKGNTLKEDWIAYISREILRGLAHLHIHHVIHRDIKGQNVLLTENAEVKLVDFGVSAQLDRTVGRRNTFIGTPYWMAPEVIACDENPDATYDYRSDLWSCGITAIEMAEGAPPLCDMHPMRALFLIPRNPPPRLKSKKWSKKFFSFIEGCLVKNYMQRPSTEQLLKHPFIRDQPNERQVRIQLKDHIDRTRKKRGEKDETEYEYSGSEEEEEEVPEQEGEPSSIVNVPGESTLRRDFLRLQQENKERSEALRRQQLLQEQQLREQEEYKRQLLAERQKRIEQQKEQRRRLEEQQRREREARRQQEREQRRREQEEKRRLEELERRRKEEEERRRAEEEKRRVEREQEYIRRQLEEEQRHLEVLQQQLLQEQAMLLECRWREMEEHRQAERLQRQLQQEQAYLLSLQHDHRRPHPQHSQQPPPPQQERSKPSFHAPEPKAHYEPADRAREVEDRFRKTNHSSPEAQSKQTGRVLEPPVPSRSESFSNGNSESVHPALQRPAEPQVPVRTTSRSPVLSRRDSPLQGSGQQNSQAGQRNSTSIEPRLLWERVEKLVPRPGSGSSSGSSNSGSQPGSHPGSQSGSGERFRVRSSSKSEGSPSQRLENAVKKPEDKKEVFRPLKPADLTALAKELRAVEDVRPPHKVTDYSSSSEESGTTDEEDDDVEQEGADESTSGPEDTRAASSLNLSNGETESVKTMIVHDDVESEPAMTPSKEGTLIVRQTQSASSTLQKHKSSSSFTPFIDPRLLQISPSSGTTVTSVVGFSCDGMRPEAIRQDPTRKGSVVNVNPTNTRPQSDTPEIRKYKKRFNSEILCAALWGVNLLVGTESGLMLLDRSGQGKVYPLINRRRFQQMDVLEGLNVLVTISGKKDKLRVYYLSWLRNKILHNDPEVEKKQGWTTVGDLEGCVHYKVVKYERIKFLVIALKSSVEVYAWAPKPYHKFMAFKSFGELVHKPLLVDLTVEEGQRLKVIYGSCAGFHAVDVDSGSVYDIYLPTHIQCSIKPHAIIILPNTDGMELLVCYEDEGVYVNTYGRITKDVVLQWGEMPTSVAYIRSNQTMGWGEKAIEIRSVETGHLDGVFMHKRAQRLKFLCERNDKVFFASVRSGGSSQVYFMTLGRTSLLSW
Summary of the method: as §1

[2] = system: Tg (fli:EGFP) zebrafish embryos; experiment: Zebrafish embryo toxicity assay; type: in vivo; conditions: 0.5 µM in egg water, three days
Description: Breeding pairs of the transgenic Casper zebrafish line Tg (fli:EGFP) were put together in a tank, and the next morning, all embryos were collected as previously described. Fertilized eggs that were at the same development stage (around 2.5 h post-fertilization (hpf)) were selected under the microscope. The eggs were randomly divided into different groups, and each group contained about 20 embryos. All the embryos were raised in egg water (60 μg/mL sea salt) and placed in a 28 °C incubator. The compounds dissolved in DMSO were diluted in egg water to a final concentration of 0.5 µM. Equal amounts of DMSO were added to the vehicle control group. Egg water was changed every day, and abnormal embryos were removed. Embryos were recorded until day 3. All experiments were performed in technical triplicates and repeated three times, and representative results are shown. The survival rate was calculated according to the following formula: Survival rate (%) = 100% × (Number of zebrafish that survived at the end)/(Number of zebrafish present at the beginning).

ALK1 = ALK1 (Homo sapiens, UniProt P37023); experiment: radiometric protein kinase assay, affinity (Kd); type: binding
Chain of ALK1 (P37023 22-503): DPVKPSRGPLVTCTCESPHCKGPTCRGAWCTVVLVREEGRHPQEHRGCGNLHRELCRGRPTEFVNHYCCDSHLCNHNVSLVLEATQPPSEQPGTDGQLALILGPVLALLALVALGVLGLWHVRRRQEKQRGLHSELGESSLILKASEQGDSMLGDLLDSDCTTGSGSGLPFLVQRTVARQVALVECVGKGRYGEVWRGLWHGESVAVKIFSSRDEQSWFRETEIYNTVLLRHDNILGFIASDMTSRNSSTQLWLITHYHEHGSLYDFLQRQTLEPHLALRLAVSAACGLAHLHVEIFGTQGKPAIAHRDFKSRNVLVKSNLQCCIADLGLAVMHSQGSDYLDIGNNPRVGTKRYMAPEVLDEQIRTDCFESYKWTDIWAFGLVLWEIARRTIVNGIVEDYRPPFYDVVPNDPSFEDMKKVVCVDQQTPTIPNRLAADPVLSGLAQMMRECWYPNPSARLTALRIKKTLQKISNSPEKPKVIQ
Description: The binding interaction profile of the compounds for ALK1–6, ACVR2A, ACVR2B, and TGFβR2 was determined by using radiometric protein kinase assay. For each compound, ten different concentrations (from 3 × 10^−6 M to 9 × 10^−11 M) were used in the protein kinase reaction.

VEGF-induced pVEGFR = experiment: Western blot of VEGF-induced VEGFR phosphorylation in HUVECs; type: cell-based, human; conditions: VEGF 40 ng/mL
Description: EA.hy926 cells or HUVECs were seeded in 6-well plates and starved in a serum-free medium for 4 h after reaching 80% confluence. The compounds were added 30 min prior to stimulation with the corresponding ligands. EA.hy926 cells were incubated with BMP9 (1 ng/mL), BMP6 (50 ng/mL), TGF-β2 (1 ng/mL), or vehicle control for 1 h. For HUVECs, after 4 h starvation, the cells were pre-treated with or without the indicated compounds for 30 min and subsequently stimulated with VEGF (40 ng/mL) for 10 min. The cells were harvested and lysed in radioimmunoprecipitation assay (RIPA) lysis buffer containing 1× complete protease inhibitor cocktail (11836153001, Roche, Basel, Switzerland). The protein concentration was determined using the DC protein assay kit (5000111, Bio-Rad). After adding loading buffer, the samples were boiled and proteins separated by sodium dodecyl sulfate polyacrylamide gel electrophoresis (SDS-PAGE). […] The protein bands were quantified using ImageJ (National Institutes of Health, Bethesda, MD, USA).

Structure (SMILES): c1ccc2c(-c3cnn4cc(-c5ccc(N6CCNCC6)cc5)cnc34)ccnc2c1 [LDN-193189, reference compound]
- effect on caALK2-induced BRE-Luc reporter activity [1]: in a dose-dependent manner attenuated

Structure (SMILES): CN1CCC(=O)NCCNc2ccn3ncc(c3n2)-c2cccc(c2)C1 [OD29]
- inhibition at 0.1 µM (SIK2): 1.13%
- inhibition at 0.1 µM (MAP4K4): 13.5%
- survival rate of the zebrafish [2]: 80–93%
- Kd (ALK1): 6 nM
- effect on VEGF-induced pVEGFR (VEGF-induced pVEGFR): did not affect

Structure (SMILES): CN1CCc2cccc(c2)Nc2nccc(n2)N2CCCc3cc(ccc32)C1 [OD16]
- inhibition at 0.1 µM (SIK2): 43.8%
- inhibition at 0.1 µM (MAP4K4): -0.07%
- survival rate of the zebrafish [2]: 80–93%
- Kd (ALK1): 20 nM
